Laboratory results as given in patent US4443246A, “Herbicidal pyridyl-ethoxy-phenyl urea derivatives” (Takeda Chemical Industries, Ltd., priority 1981, dated 1984).

Assays:
[1] = Toxicity to mammals (LD50, orally in mice); conditions: mouse, in vivo, po
Toxicity to fishes (TLm) = conditions: in vivo
Corn = assay: Phytotoxicity to crop (corn), foliar pot test; type: in vivo, Zea mays L.; conditions: 14 days after foliar spray
Protocol: 900 cm^2 -Plastic pots are packed with crop-filed soil and sown with seeds of Red root pigweed (Amaranthus retroflexus L.), Purple lambsquarter (Chenopodium album (L.) var. centrorubrum Makino), Oriental smartweed, (Polygonum Blumei Meisn.), Common purslane (Portulaca oleracea L.), Tall morningglory (Ipomoea purpurea (L.) Roth), Cocklebur (Xanthium strumarium L.), Velvetleaf (Abutilon theophrasti Medic.), Jimson weed (Datura stramonium L.) and Corn (Zea mays L.)
These test plants are grown in a greenhouse for 9-14 days. When the true leaves sprouted, these pots are placed in a chamber of 1000 cm^2, where 10 ml each of solutions each containing a given weight of the test compound is applied to each plant from the above with a small spraygun so that each drug solution is applied to leaves and stalks of the respective plants homogeneously. These pots are then left standing in the greenhouse for 14 days. Then, the above-ground portions of each of the thus treated plants, which have remained non-withering, are collected by cutting, followed by weighing while they are fresh.
The non-withering ratio is calculated on the basis of the corresponding weight of the control (non-treated) plants as 100%. The phytotoxicity and herbicidal effect of the test compound are evaluated on the basis of the following criteria. The test solution is prepared by dissolving the test compound of a given weight in 1 ml of acetone containing 1% of a surface-active agent, Tween 20® (Kao Atlas Co., Japan), which is diluted with deionized water to make the total volume to be 10 ml.
To dissolve or disperse the test compound completely in the acetone, stirring by means of super-sonic wave is employed.
Phytotoxicity to crop (corn) is indicated with the following indexes:
(The indexes 0 and 1 to crop denote the test compound can be practically applicable to crop.)

weeds = conditions: prior art, in words; cited from earlier work

| Compound | LD50 [1] [mg/kg] | LC50 (Toxicity to fishes (TLm)) [µg/mL] | Phytotoxicity Corn (Corn; Application rate 10) | Phytotoxicity Corn (Corn; Application rate 20) | herbicidal activity (weeds) |
| --- | --- | --- | --- | --- | --- |
| Cc1cccc(CCOc2ccc(NC(=O)N(C)C)cc2)n1 [Compound No. 1, N,N-dimethyl-N'-[4-[2-(6-methyl-2-pyridyl)ethoxy]phenyl]urea] | ≥ 300 | ≥ 10 | 0 (None 0) | 0 (None 0) |  |
| CCc1ccc(CCOc2ccc(NC(=O)N(C)C)cc2)nc1 [Compound No. 2, N,N-dimethyl-N'-[4-[2-(5-ethyl-2-pyridyl)ethoxy]phenyl]urea] |  |  | 1 (Negligible 0.1 to 12.5) | 1 (Negligible 0.1 to 12.5) |  |
| CON(C)C(=O)Nc1ccc(OCCc2cccc(C)n2)cc1 [Compound No. 3, N-methoxy-N-methyl-N'-[4-[2-(6-methyl-2-pyridyl)ethoxy]phenyl]urea] |  |  | 1 (Negligible 0.1 to 12.5) | 1 (Negligible 0.1 to 12.5) |  |
| CN(C)C(=O)Nc1ccc(Oc2ccc(Cl)cc2)cc1 [chloroxuron, N'-[4-(4-chlorophenoxy)phenyl]-N,N-dimethylurea] |  |  |  |  | have herbicidal activity |
